In the test the test system is subjects with uncontrolled hypertension. Description: 24-hour ambulatory blood pressure monitoring (ABPM). It is filed as in vivo, human. The following applies: for Proportion of subjects with nighttime dip 10-20% in 24-hour systolic ABP / Proportion of subjects with nighttime dip <10% in 24-hour systolic ABP / Proportion of subjects with nighttime dip >20% in 24-hour systolic ABP: Part 1, FAS. As to the method:
Ambulatory blood pressure monitoring was accomplished with an ambulatory blood pressure monitoring device that consists of a blood pressure cuff worn on a subject's arm attached to a small recording device that is typically attached to the subject's belt or waistband. The ABPM device is worn for 24 hours. Throughout that period, the device records the subject's blood pressure at regular intervals, during the subject's routine daily activities and while they are sleeping. The ABPM thus provides a complete record of the subject's blood pressure over a 24-hour period. 24-hour ABPM was measured in the clinic at baseline and Study Week 7. If, for any reason, the ABPM procedure was deemed a failure at the end of Study Week 7, it may have been repeated at Study Week 8 and therefore no imputation was employed regardless of use of rescue medications. Additionally, ABPM was also collected at the end of Study Week 4 in Part 2. If a repeat test was performed, it supersedes the original test results for that visit. Specific derived variables based on ABPM measurements include mean 24-hour, mean Daytime, and mean Nighttime of SBP, DBP, and heart rate. Change from baseline to Week 7 in 24-hour mean SBP (and DBP) based on ABPM will be analyzed using an ANCOVA with a term for treatment group and a baseline mean 24-hour value as a covariate. The nighttime dip is defined as 100% x(mean daytime SBP−mean nighttime SBP)/mean daytime SBP It is expressed as a percentage and is summarized by treatment group and visit using descriptive statistics. In addition, the number and percentage of subjects with nighttime dip in each of the dipper categories (Bloomfield & Park, 2015) is presented by treatment group and visit. The categories are: • (a) <10% • (b) 10-20% inclusive • (c) >20%

With `CC(=O)N[C@H]1CC[C@H](NC(=O)CN2CCN(c3nncc(-c4ccc(C)cc4)n3)CC2)CC1` [Compound A HBr], the “Proportion of subjects with nighttime dip 10-20% in 24-hour systolic ABP” value (12.5 mg BID, EoT) is reported as “(31.3) %”; the “Proportion of subjects with nighttime dip 10-20% in 24-hour systolic ABP” value (12.5 mg QD, EoT) is on record as “(35.7) %”; the “Proportion of subjects with nighttime dip 10-20% in 24-hour systolic ABP” value (25 mg BID, EoT) is reported as “(16.7) %”; the “Proportion of subjects with nighttime dip 10-20% in 24-hour systolic ABP” value (50 mg QD, EoT) is on record as “(21.4) %”; the “Proportion of subjects with nighttime dip 10-20% in 24-hour systolic ABP” value (100 mg QD, EoT) is “(45.8) %”. The “Proportion of subjects with nighttime dip <10% in 24-hour systolic ABP” value (12.5 mg BID, EoT) is listed as “(68.8) %”; the “Proportion of subjects with nighttime dip <10% in 24-hour systolic ABP” value (12.5 mg QD, EoT) was “(64.3) %”; the “Proportion of subjects with nighttime dip <10% in 24-hour systolic ABP” value (25 mg BID, EoT) is recorded as “(79.2) %”; the “Proportion of subjects with nighttime dip <10% in 24-hour systolic ABP” value (50 mg QD, EoT) is given as “(78.6) %”; the “Proportion of subjects with nighttime dip <10% in 24-hour systolic ABP” value (100 mg QD, EoT) is “(45.8) %”. Also, the “LSM Δ with Placebo, change from baseline in Nighttime Mean DBP (ABPM, ANCOVA)” value (12.5 mg QD, End of Treatment, Part 1, FAS post-hoc) is on record as −1.53 mmHg. The “Proportion of subjects with nighttime dip >20% in 24-hour systolic ABP” value is, setting by setting: (25 mg BID, EoT) “(4.2) %”; (100 mg QD, EoT) “(8.3) %”. Further, the “Subjects with nighttime dip 10-20% in 24-hour systolic ABP” value is 9 n (100 mg QD, EoT, Part 2, FAS) and 6 n (100 mg QD, Week 4, Part 2, FAS). Besides, the “Subjects with nighttime dip <10% in 24-hour systolic ABP” value stood at 18 n (100 mg QD, EoT, Part 2, FAS) and 18 n (100 mg QD, Week 4, Part 2, FAS). Besides, the “Subjects with nighttime dip >20% in 24-hour systolic ABP” value is 0 n (100 mg QD, EoT, Part 2, FAS) and 1 n (100 mg QD, Week 4, Part 2, FAS).
